In BindingDB's records for doi:10.7270/Q2W957MN (The Scripps Research Institute Molecular Screening Center, 2010):

molecular target: T1, Trans-activator protein BZLF1 (Epstein-Barr virus (strain B95-8), UniProt P03206); test: EBV ZTA inhibitors, dose response, counter-screen for EBNA-1 inhibitor project, biochemical, fluorescence polarization, Epstein-Barr virus, 1536-well (AID 2377)
T1 sequence (P03206 whole entry): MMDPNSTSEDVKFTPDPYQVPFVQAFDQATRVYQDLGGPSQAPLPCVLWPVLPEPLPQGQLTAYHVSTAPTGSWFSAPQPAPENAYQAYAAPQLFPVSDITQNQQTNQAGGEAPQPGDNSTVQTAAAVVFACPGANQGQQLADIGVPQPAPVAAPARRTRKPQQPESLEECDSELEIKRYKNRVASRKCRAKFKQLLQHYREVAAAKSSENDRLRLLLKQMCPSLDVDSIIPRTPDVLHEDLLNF

Structure (SMILES)	IC50 [µM]
O=C(Nc1nc2cc3c(cc2s1)OCCO3)c1ccc(-n2c(O)ccc2O)cc1	15.1
COc1ccc(-n2cc(O)c(-c3nc4ccccc4s3)c2N)cc1	> 111
COc1cc(-c2nc3n(n2)C(c2cccc(OC)c2OC)C2C(=O)CCCC2=N3)cc(OC)c1OC (configuration not stated)	> 111
C=c1cc2[nH]c(=O)c(=Cc3cn(C)c4ccccc34)c(=N)n2o1 [(6Z)-7-imino-2-methyl-6-[(1-methylindol-3-yl)methylidene]-[1,2]oxazolo[2,3-a]pyrimidin-5-one]	> 111
COc1cccc(-n2cc(O)c(-c3nc4ccccc4c(=O)[nH]3)c2N)c1 [MLS000075886]	> 111
O=[N+]([O-])c1cccc(CN=Nc2nc(NCc3ccccc3)nc(N3CCOCC3)n2)c1 [SMR000174986]	> 111
CN1C(=O)/C(=N\NC(=O)c2cc(-c3cccs3)nc3ccccc23)c2ccccc21 [SMR000242891]	> 111
